Laboratory results published in PubChem BioAssay (NCI).
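Here, GI50 denotes the concentration required for 50% inhibition of growth. TGI: concentration producing complete growth inhibition.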

Tests used:
Assay in all cases: growth of human tumour cells (NCI), 384-well format
786-0 renal = system: 786-0 renal
A498 renal = system: A498 renal
A549 NSCLC = system: A549 NSCLC
ACHN renal = system: ACHN renal
BT-549 breast = system: BT-549 breast
CAKI-1 renal = system: CAKI-1 renal
CCRF-CEM leukemia = system: CCRF-CEM leukemia
COLO 205 colon = system: COLO 205 colon
DU-145 prostate = system: DU-145 prostate
EKVX NSCLC = system: EKVX NSCLC
HCC-2998 colon = system: HCC-2998 colon
HCT-15 colon = system: HCT-15 colon
HL-60(TB) leukemia = system: HL-60(TB) leukemia
HOP-62 NSCLC = system: HOP-62 NSCLC
HOP-92 NSCLC = system: HOP-92 NSCLC
HS 578T breast = system: HS 578T breast
HT29 colon = system: HT29 colon
IGROV1 ovarian = system: IGROV1 ovarian
KM12 colon = system: KM12 colon
M14 melanoma = system: M14 melanoma
MALME-3M melanoma = system: MALME-3M melanoma
MCF7 breast = system: MCF7 breast
MDA-MB-231 breast = system: MDA-MB-231 breast
MDA-MB-435 melanoma = system: MDA-MB-435 melanoma
MDA-MB-468 breast = system: MDA-MB-468 breast
MOLT-4 leukemia = system: MOLT-4 leukemia
NCI-H226 lung = system: NCI-H226 lung
NCI-H23 lung = system: NCI-H23 lung
NCI-H322M lung = system: NCI-H322M lung
NCI-H460 NSCLC = system: NCI-H460 NSCLC
NCI-H522 lung = system: NCI-H522 lung
NCI/ADR-RES ovarian = system: NCI/ADR-RES ovarian
OVCAR-3 ovarian = system: OVCAR-3 ovarian
OVCAR-4 ovarian = system: OVCAR-4 ovarian
OVCAR-5 ovarian = system: OVCAR-5 ovarian
OVCAR-8 ovarian = system: OVCAR-8 ovarian
PC-3 prostate = system: PC-3 prostate
RPMI-8226 leukemia = system: RPMI-8226 leukemia
RXF 393 renal = system: RXF 393 renal
SF-268 CNS = system: SF-268 CNS
SF-295 CNS = system: SF-295 CNS
SF-539 CNS = system: SF-539 CNS
SK-MEL-2 melanoma = system: SK-MEL-2 melanoma
SK-MEL-28 melanoma = system: SK-MEL-28 melanoma
SK-MEL-5 melanoma = system: SK-MEL-5 melanoma
SK-OV-3 ovarian = system: SK-OV-3 ovarian
SN12C renal = system: SN12C renal
SNB-19 CNS = system: SNB-19 CNS
SNB-75 CNS = system: SNB-75 CNS
SR leukemia = system: SR leukemia
SW-620 colon = system: SW-620 colon
T-47D breast = system: T-47D breast
TK-10 renal = system: TK-10 renal
U251 glioblastoma = system: U251 glioblastoma
UACC-257 melanoma = system: UACC-257 melanoma
UACC-62 melanoma = system: UACC-62 melanoma

## O=c1c(O)c(-c2ccc(O)c(O)c2)oc2cc(O)cc(O)c12
786-0 renal
  GI50: 36.5 µM
  TGI: > 100 µM
A498 renal
  GI50: 14.2 µM
  TGI: 73.2 µM
A549 NSCLC
  GI50: 28.2 µM
  TGI: > 100 µM
ACHN renal
  GI50: 35.1 µM
  TGI: 88.2 µM
BT-549 breast
  GI50: 17 µM
  TGI: 61.7 µM
CAKI-1 renal
  GI50: 44.8 µM
  TGI: > 100 µM
CCRF-CEM leukemia
  GI50: 13.7 µM
  TGI: 26.7 µM
COLO 205 colon
  GI50: > 100 µM
  TGI: > 100 µM
DU-145 prostate
  GI50: 24.4 µM
  TGI: 94 µM
EKVX NSCLC
  GI50: 24.6 µM
  TGI: > 100 µM
HCC-2998 colon
  GI50: 29.4 µM
  TGI: 93.2 µM
HCT-15 colon
  GI50: 27 µM
  TGI: 97.4 µM
HL-60(TB) leukemia
  GI50: 12.4 µM
  TGI: 25.3 µM
HOP-62 NSCLC
  GI50: 11.1 µM
  TGI: 23.1 µM
HOP-92 NSCLC
  GI50: 20.8 µM
  TGI: 65.7 µM
HS 578T breast
  GI50: 6.06 µM
  TGI: 23.1 µM
HT29 colon
  GI50: 46.4 µM
  TGI: > 100 µM
IGROV1 ovarian
  GI50: 20.5 µM
  TGI: 55.7 µM
KM12 colon
  GI50: 22.9 µM
  TGI: 96.5 µM
M14 melanoma
  GI50: 20.5 µM
  TGI: 47.1 µM
MALME-3M melanoma
  GI50: 20 µM
  TGI: 76.4 µM
MCF7 breast
  GI50: 18.9 µM
  TGI: 33.8 µM
MDA-MB-231 breast
  GI50: 10.9 µM
  TGI: 40.3 µM
MDA-MB-435 melanoma
  GI50: 17 µM
  TGI: 54.6 µM
MDA-MB-468 breast
  GI50: 2.54 µM
  TGI: 7.46 µM
MOLT-4 leukemia
  GI50: 13.6 µM
  TGI: 26.6 µM
NCI-H226 lung
  GI50: 24.1 µM
  TGI: 69 µM
NCI-H23 lung
  GI50: 13.2 µM
  TGI: 29.7 µM
NCI-H322M lung
  GI50: 26.1 µM
  TGI: 98.8 µM
NCI-H460 NSCLC
  GI50: 14.9 µM
  TGI: 31.7 µM
NCI-H522 lung
  GI50: 8.75 µM
  TGI: 43.1 µM
NCI/ADR-RES ovarian
  GI50: 20 µM
  TGI: 40.2 µM
OVCAR-3 ovarian
  GI50: 16.2 µM
  TGI: 42.3 µM
OVCAR-4 ovarian
  GI50: 19.1 µM
  TGI: 44.5 µM
OVCAR-5 ovarian
  GI50: 20.9 µM
  TGI: 62.5 µM
OVCAR-8 ovarian
  GI50: 20.9 µM
  TGI: 55.2 µM
PC-3 prostate
  GI50: 25.5 µM
  TGI: 74.5 µM
RPMI-8226 leukemia
  GI50: 15.3 µM
  TGI: 33.9 µM
RXF 393 renal
  GI50: 18 µM
  TGI: 56.2 µM
SF-268 CNS
  GI50: 17.3 µM
  TGI: 40.2 µM
SF-295 CNS
  GI50: 17.3 µM
  TGI: 33.2 µM
SF-539 CNS
  GI50: 14.5 µM
  TGI: 32.6 µM
SK-MEL-2 melanoma
  GI50: 19.1 µM
  TGI: 39.6 µM
SK-MEL-28 melanoma
  GI50: 33.2 µM
  TGI: 93.1 µM
SK-MEL-5 melanoma
  GI50: 16.8 µM
  TGI: 53.4 µM
SK-OV-3 ovarian
  GI50: 19.8 µM
  TGI: 51.7 µM
SN12C renal
  GI50: 28.8 µM
  TGI: 79.8 µM
SNB-19 CNS
  GI50: 24.9 µM
  TGI: 71.7 µM
SNB-75 CNS
  GI50: 14.3 µM
  TGI: 30.5 µM
SR leukemia
  GI50: 1.94 µM
  TGI: 3.53 µM
SW-620 colon
  GI50: 41.9 µM
  TGI: > 100 µM
T-47D breast
  GI50: 19.9 µM
  TGI: 36.8 µM
TK-10 renal
  GI50: 45.4 µM
  TGI: > 100 µM
U251 glioblastoma
  GI50: 12.8 µM
  TGI: 36 µM
UACC-257 melanoma
  GI50: 23.4 µM
  TGI: > 100 µM
UACC-62 melanoma
  GI50: 16.6 µM
  TGI: 33.5 µM
